Laboratory results from patent publication US8658801B2, “Pesticides containing a bicyclic bisamide structure” (Syngenta Crop Protection, LLC, priority 2006, dated 2014).

Key:
[1] = test system: Heliothis virescens (Tobacco Budworm); assay: Example B2: activity against Heliothis virescens, ovo-larvicide, feeding/contact, curative; type: in vivo; details: 96 h, 4 days incubation, eggs 0-24 h old
Experimental: Activity Against Heliothis virescens (Tobacco Budworm)
(Ovo-Larvicide, Feeding/Contact Activity, Curative)
Eggs (0-24 h old) are placed in 24-well microtiter plate on artificial diet and treated with test solutions by pipetting. After an incubation period of 4 days, samples are checked for egg mortality, larval mortality, and growth regulation.

[2] = test system: Plutella xylostella (Diamond Back Moth); assay: Example B3: Plutella xylostella, larvicide, feeding/residual contact, preventive (artificial diet MTP); type: in vivo; details: 120 h, 5 days incubation, L2 larvae
In short: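 Artificial diet in multiwell plates treated with test solution, dried, then infested with 10–15 L2 larvae per well. After 5 days, larval mortality, antifeedant effect and growth regulation were scored.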

[3] = test system: Frankliniella occidentalis (Western Flower Thrips); assay: Example B9: activity against Frankliniella occidentalis (bean leaf discs or bean plants); type: in vivo; details: foliar, 6 days (leaf discs) or 14 days (plants) after infestation
Experimental: Activity Against Frankliniella occidentalis (Western Flower Thrips)
Bean leaf discs on agar in petri dishes or bean plants in a spray chamber are treated with diluted test solutions. After drying leaf discs are cut and placed in plastic cups on the surface of an agar layer and infested with mixed population. 6 days (leaf discs) or 14 days (plants) after the infestation, samples are checked for reduction of treated population and compared to the non treated population.

[4] = test system: Myzus persicae (Green Peach Aphid); assay: Example B5: activity against Myzus persicae, mixed population, feeding/residual contact, preventive (sunflower leaf discs); details: foliar, 144 h, read-out: activity
[5] = test system: Cydia pomonella (Codling Moth); assay: Example B8: activity against Cydia pomonella (paraffin-coated diet cubes); type: in vivo; details: 336 h, 14 days incubation at 26° C.
Experimental: Activity Against Cydia pomonella (Codling Moth)
Standard Cydia diet cubes (1.5 cm width) are pierced with a tooth-pick and are immersed in liquid paraffin (ca. 80° C.). After the paraffin coat has hardened, an aqueous emulsion containing 400 ppm of active ingredient is applied using a De Vilbis sprayer (25 ml, 1 bar). After the spray coating has dried, the cubes are put into plastic containers which are then populated with two freshly hatched Cydia pomonella (1st instar). The containers are then closed with a plastic cap. After 14 days incubation at 26° C. and 40-60% relative humidity, the survival rate of the caterpillars as well as their growth regulation is determined. In this test, compounds listed in Table P above show good activity. In particular compounds P.10, P.11, P.12, P.18, P.19, P.20, P.29, P.30, P.31, P.32, P.33, P.34, P.35, P.37, P.38, P.39, P.42, and P.43 show an activity of over 80% at a concentration of 400 ppm.

[6] = test system: Diabrotica balteata (Corn Root Worm); assay: Example B4: Diabrotica balteata, larvicide, feeding/residual contact, preventive; type: in vivo; details: 120 h, 5 days incubation, L2 larvae
In short: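 Artificial diet treated with test solution, dried, then infested with 6-10 L2 larvae per well. Larval mortality, antifeedant effect and growth regulation checked after 5 days of incubation.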

[7] = test system: Spodoptera littoralis (Egyptian Cotton Leafworm); assay: Example B1: activity against Spodoptera littoralis, larvicide, feeding/residual contact, preventive (cotton leaf discs); type: in vivo; details: foliar, 72 h, 3 days after treatment, L1 larvae
[8] = test system: Myzus persicae (Green Peach Aphid); assay: Example B6: activity against Myzus persicae, mixed population, systemic/feeding, curative (pea seedling roots); details: 144 h, read-out: activity
[9] = test system: Thrips tabaci (Onion Thrips); assay: Example B7: activity against Thrips tabaci, mixed population, feeding/residual contact, preventive; details: 144 h, read-out: activity
[10] = test system: Aphis craccivora (Pea Aphid); assay: Example B11: activity against Aphis craccivora, mixed population, systemic/feeding; type: in vivo; details: 144 h, 6 days, roots in test solution (systemic)
Excerpt: Activity Against Aphis craccivora (Pea Aphid)
(§1) (Mixed Population, Systemic/Feeding)
(§2) 6 days later, samples are checked for mortality.

[11] = test system: Aphis aossypii (Cotton Aphid); assay: Example B13: activity against cotton aphid, mixed population, systemic/feeding; type: in vivo; details: 144 h, 6 days, roots in test solution (systemic)
Excerpt: Activity Against Aphis aossypii (Cotton Aphid)
as §1, §2

Measured: pest or weed control at 400 ppm

O=C(NCC1CC1)c1c(NC(=O)c2cc(C(F)(F)F)nn2-c2ncccc2Cl)c(Cl)cc2cn[nH]c12 [P.11]
not listed: [8] | [9] | [10] | [11]
> 80%: all other assays above

O=C(NC1(C2CC2)CC1)c1c(NC(=O)c2cc(C(F)(F)F)nn2-c2ncccc2Cl)c(Cl)cc2cn[nH]c12 [P.12]
not listed: [10] | [11]
> 80%: all other assays above

O=C(NC1(C2CC2)CC1)c1c(NC(=O)c2cc(C(F)(F)F)nn2-c2ncccc2Cl)c(Br)cc2cn[nH]c12 [P.18]
not listed: [8] | [10] | [11]
> 80%: all other assays above

O=C(NCC1CC1)c1c(NC(=O)c2cc(C(F)(F)F)nn2-c2ncccc2Cl)c(Br)cc2cn[nH]c12 [P.19]
not listed: [9] | [10] | [11]
> 80%: all other assays above

CNC(=O)c1c(NC(=O)c2cc(C(F)(F)F)nn2-c2ncccc2Cl)c(Cl)cc2cn[nH]c12 [P.29]
not listed: [3] | [10] | [11]
> 80%: all other assays above

CSCC(C)(C)NC(=O)c1c(NC(=O)c2cc(C(F)(F)F)nn2-c2ncccc2Cl)c(Br)cc2cn[nH]c12 [P.33]
not listed: [11]
> 80%: all other assays above

CC(C)(CS(C)(=O)=O)NC(=O)c1c(NC(=O)c2cc(C(F)(F)F)nn2-c2ncccc2Cl)c(Br)cc2cn[nH]c12 [P.34]
not listed: [10] | [11]
> 80%: all other assays above

COc1cc(C(=O)Nc2c(Br)cc3cn[nH]c3c2C(=O)NC(C)C)n(-c2ncccc2Cl)n1 [P.35]
not listed: [10] | [11]
> 80%: all other assays above

CCNC(=O)c1c(NC(=O)c2cc(Cl)nn2-c2ncccc2Cl)c(Br)cc2cn[nH]c12 [P.37]
not listed: [3] | [10] | [11]
> 80%: all other assays above

O=C(NC1(C2CC2)CC1)c1c(NC(=O)c2cc(C(F)F)nn2-c2ncccc2Cl)c(Cl)cc2cn[nH]c12 [P.38]
not listed: [8] | [9] | [10] | [11]
> 80%: all other assays above

Cc1cc2cn[nH]c2c(C(=O)NC(C)C)c1NC(=O)c1cc(C(F)F)nn1-c1ncccc1Cl [P.56, 6-{[2-(3-chloro-pyridin-2-yl)-5-difluoromethyl-2H-pyrazole-3-carbonyl]-amino}-5-methyl-1H-indazole-7-carboxylic acid isopropylamide]
not listed: [5] | [6]
> 80%: all other assays above

COc1cc(C(=O)Nc2c(Cl)cc3cn[nH]c3c2C(=O)NC(C)(C)CS(C)(=O)=O)n(-c2ncccc2Cl)n1 [P.60]
not listed: [5] | [6] | [9]
> 80%: all other assays above

COc1cc(C(=O)Nc2c(Cl)cc3cn[nH]c3c2C(=O)NC2(C)CS(=O)(=O)C2)n(-c2ncccc2Cl)n1 [P.61, 5-chloro-6-{[2-(3-chloro-pyridin-2-yl)-5-methoxy-2H-pyrazole-3-carbonyl]-amino}-1H-indazole-7-carboxylic acid (3-methyl-1,1-dioxo-1lambda*6*-thietan-3-yl)-amide]
not listed: [5] | [6] | [9]
> 80%: all other assays above
